Results from patent publication US11219636B2, “Compositions and methods for treating cancer” (priority 2015, dated 2022).

Columns and labels:
[1] = tested on: HCT116 cells
[2] = tested on: p53; assay: p53 transcription activity by GFP reporter in HCT116 cells transfected with RGC-mazE-IRES-GFP plasmid; format: cell-based, human
Method: In order to test the ability of p53 to bind to its responsive element and stimulate transcription, HCT116 cells were transfected with RGC-mazE-IRES-GFP plasmid. Since p53 is degraded in un-activated cells, the present inventors used Quercetin, a ubiquitous bioactive plant flavonoid that is able to induce p53 phosphorylation, stabilization and total p53 protein accumulation. Another widely used p53 inducer is the antimetabolite agent 5-FU. P53 transcription activity was evaluated by measuring the expression of the downstream reporter gene, GFP.

[3] = tested on: p53 target genes; assay: Transcription of p53 target genes, Western blot and semi-quantitative PCR; format: cell-based, human; details: 50 μM, 24 hours, HCT116 p53 WT cells
Method: FIGS. 14A-C are Western blot analyses of p53 (FIG. 14A), p21 (FIG. 14B) and Tubulin (FIG. 14C) of HCT116 cells after treatment with 5FU. HCT116 cells were treated with 50 μM 5FU for 24 hours. Then, total cell lysate was prepared and subjected to Western blot analysis for p53 (FIG. 14A) and p21 (FIG. 14B) analysis. Tubulin (FIG. 14C) was used as a loading control and in the analyses of both proteins for normalization.
FIGS. 15A-B depict mRNA levels of various transcripts following treatment of HCT116 cells with 5FU. HCT116 cells were treated with 50 μM 5FU for 24 hours. Then, RNA was prepared and used as a template for cDNA and semi-quantitative PCR was performed for the following transcripts: p21, Bax, Noxa, Puma, MDM2, 14-3-3o, CD95, Btg2, GADD45, and Survivin. The graph represents the quantification of mRNA levels performed using the primers listed in Table 2 in the EXAMPLES section which follows.
Further validation of endogenous p53 activation led the present inventors to test other canonical target genes. 5-FU (50 μM) was added to HCT116 p53 WT cells for 24 hours. Total cell lysate was prepared and subjected into Western blot analysis and at the same time RNA was prepared and used as a template for cDNA and semi-quantitative PCR was performed. […] In particular a tight correlation between p21 and p53 protein levels (FIGS. 14A-C).

Structure (SMILES) | cell toxicity ([1]; even very high doses (data not shown)) | GFP expression ([2]; 10 μM, compared with Quercetin) | mRNA and protein of p53 target genes [3] | cell toxicity (cell death) ([1]; transfected HCT116 cells) | increase of GFP expression ([2]; 50 μM)
O=c1[nH]cc(F)c(=O)[nH]1 [5-FU] | no toxicity | significantly higher expression levels of GFP | up regulation |  | 
O=c1c(O)c(-c2ccc(O)c(O)c2)oc2cc(O)cc(O)c12 [Quercetin] |  |  |  | 60% | about 10 folds
